Reference: publication PMC2649788 (Drug metabolism and disposition: the biological fate of …, 2008)
Where a chain is given by its changes, count along the chain named. Where “and” joins values, the source holds several entries; their conditions need not be identical. Identical values can stand only once.

What was measured:
[1] = system: K262R; assay type: biochemical, human; conditions: type II inhibitors; Supporting table 1
[2] = biological target: T1, CYP2B6dH (Homo sapiens, UniProt P20813); assay: 7-MFC O-deethylation inhibition in standard reconstitution system; conditions: pH 7.4
T1 sequence (P20813 with tags, fused parts or gaps limits assumed): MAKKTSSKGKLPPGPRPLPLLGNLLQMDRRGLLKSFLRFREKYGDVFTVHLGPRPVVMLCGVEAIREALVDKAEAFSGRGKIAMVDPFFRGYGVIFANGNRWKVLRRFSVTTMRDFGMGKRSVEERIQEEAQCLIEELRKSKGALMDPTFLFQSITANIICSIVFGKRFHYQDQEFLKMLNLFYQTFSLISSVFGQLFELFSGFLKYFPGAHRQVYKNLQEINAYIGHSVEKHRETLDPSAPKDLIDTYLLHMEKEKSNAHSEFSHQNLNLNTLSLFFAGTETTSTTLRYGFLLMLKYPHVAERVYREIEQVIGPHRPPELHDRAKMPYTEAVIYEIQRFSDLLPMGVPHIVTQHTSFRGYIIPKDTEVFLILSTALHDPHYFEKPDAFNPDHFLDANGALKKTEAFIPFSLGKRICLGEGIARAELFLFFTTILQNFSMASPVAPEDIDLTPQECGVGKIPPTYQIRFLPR

[3] = biological target: T2, K262R (2B6*4) (Homo sapiens, UniProt P20813, K262R); assay: as above; conditions: for Increase in Ki, K262R compared with CYP2B6dH: 7-MFC O-deethylation
T2 sequence (P20813 with tags, fused parts or gaps K262R limits assumed): T1 sequence (P20813 with tags, fused parts or gaps limits assumed) with K243R

[4] = biological target: T3, CYP2B6 K262R (2B6*4) (Homo sapiens, UniProt P20813, K262R); assay: as above; conditions: human, pH 7.4
T3 sequence (P20813 with tags, fused parts or gaps K262R limits assumed): T1 sequence (P20813 with tags, fused parts or gaps limits assumed) with K243R

[5] = biological target: T4, Q172H/K262R (2B6*6) (Homo sapiens, UniProt P20813, K262R/Q172H)
T4 sequence (P20813 with tags, fused parts or gaps Q172H/K262R limits assumed): T1 sequence (P20813 with tags, fused parts or gaps limits assumed) with Q153H, K243R

[6] = biological target: T4, Q172H/K262R (2B6*6); assay: 7-MFC O-deethylation inhibition in standard reconstitution system; conditions: for Increase in Ki, Q172H/K262R compared with CYP2B6dH: 7-MFC O-deethylation; for Ki: Ki (Q172H/K262R), 7-MFC 25, 50, 100, 150 μM, global fit, duplicate
[7] = biological target: T5, CYP2B6 Q172H/K262R (2B6*6) (Homo sapiens, UniProt P20813, K262R/Q172H); assay: as above; conditions: human, pH 7.4
T5 sequence (P20813 with tags, fused parts or gaps Q172H/K262R limits assumed): T1 sequence (P20813 with tags, fused parts or gaps limits assumed) with Q153H, K243R

[8] = biological target: T1, CYP2B6dH
[9] = system: K262R; conditions: in contrast to CYP2B6dH, ref Bumpus et al., 2005, 2006; cited from earlier work
[10] = biological target: T1, CYP2B6dH; assay: Spectral binding; conditions: for Type of difference spectrum induced: CYP2B6dH and K262R, peak ~388 nm, trough ~420 nm; for ΔAmax (CYP2B6dH): difference spectra, 1 μM P450
[11] = biological target: T2, K262R (2B6*4); assay: Spectral binding; conditions: for ΔAmax (K262R): difference spectra, 1 μM P450; for ΔAmax, K262R compared with wild-type / Higher Ks, K262R compared with CYP2B6dH: spectral binding
[12] = system: K262R; design: species or system human
[13] = read-out: Estimated in vivo Cmax; plasma, normal population; used as [I]; ref www.mentalhealth.com, www.medscape.com, www.pharmgkb.org, Burgess and Bodey, 1972, Goodwin and Drew, 2007; cited from earlier work
[14] = biological target: T1, CYP2B6dH; conditions: for Predicted in vivo % activity (CYP2B6dH): remaining efavirenz metabolism relative to no inhibitor; for Predicted inhibition of efavirenz metabolism (CYP2B6dH): in vivo prediction
[15] = system: 2B6*1/*4 genotype; conditions: individuals with 2B6*1/*4 genotype, single dose; ref Kirchheiner at al., 2003; cited from earlier work
[16] = system: K262R; conditions: bupropion to hydroxybupropion; ref Bumpus et al., 2005; cited from earlier work
[17] = system: *1/*4 heterozygotes; conditions: ref Rotger et al., 2007; cited from earlier work
[18] = system: K262R; conditions: ref Bumpus et al., 2006, cited from earlier work
[19] = biological target: T1, CYP2B6dH; conditions: ref Bumpus et al., 2006, cited from earlier work

## c1ccc(-c2ccc(Cn3ccnc3)cc2)cc1 [1-(4-phenyl)benzylimidazole]
[1]
  Lower IC50, K262R compared with CYP2B6dH: ~ 2 fold and 2 fold

## O=[N+]([O-])c1ccc(Cc2ccncc2)cc1 [4-(4-nitrobenzyl)pyridine]
[1]
  Lower IC50, K262R compared with CYP2B6dH: ~ 2 fold and 2 fold

## c1ccc(-c2ccncc2)cc1 [4-(phenyl)pyridine]
[1]
  Lower IC50, K262R compared with CYP2B6dH: 10 fold

## COc1ccc2c(C(F)(F)F)cc(=O)oc2c1 [7-MFC, 7-Methoxy-4-(trifluoromethyl) coumarin]
[2]
  Km at 5 min: 5.1 µM
[3]
  kcat for 7-MFC oxidation (K262R): 4.9 min⁻¹
[4]
  Km at 5 min: 5 µM
[5]
  Km higher, Q172H/K262R vs CYP2B6dH or K262R: ~ 10 fold
  kcat lower, Q172H/K262R vs CYP2B6dH or K262R: > 2 fold
[6]
  kcat for 7-MFC oxidation (Q172H/K262R): 1.3 min⁻¹
[7]
  Km at 5 min: 49 µM
[8]
  kcat for 7-MFC oxidation (CYP2B6dH): 3.8 min⁻¹

## O=C1Nc2c(O)cc(Cl)cc2[C@@](C#CC2CC2)(C(F)(F)F)O1 [8-hydroxyefavirenz]
[9]
  Susceptibility of K262R to mechanism-based inactivation: preserved

## C#C[C@]1(O)CC[C@H]2[C@@H]3CCc4cc(O)ccc4[C@H]3CC[C@@]21C [17α-ethynylestradiol]
[9]
  Susceptibility of K262R to mechanism-based inactivation: refractory

## COC(=O)[C@H](c1ccccc1Cl)N1CCc2sccc2C1 [Clopidogrel, clopidogrel]
[10]
  Kd: 160 ± 110 nM
  Type of difference spectrum induced: type I
  ΔAmax (CYP2B6dH): 0.026 ± 0.002
[3]
  Increase in Ki, K262R compared with CYP2B6dH: 4 fold
[3]; listed as clopidogrel
  Increase in Ki, K262R compared with CYP2B6dH: > 3 fold
[6]; listed as clopidogrel
  Increase in Ki, Q172H/K262R compared with CYP2B6dH: > 6 fold and 6 fold
[6]
  Ki: 600 nM and 590 nM and 630 nM
[11]
  Kd: 330 ± 140 nM
  ΔAmax (K262R): 0.030 ± 0.002
  ΔAmax, K262R compared with wild-type: similar
[12]
  Predicted in vivo activity (K262R): 0.27 (7.6) min^−1
[13]
  Cmax: 9300 nM

## Clc1ccccc1C(c1ccccc1)(c1ccccc1)n1ccnc1 [Clotrimazole, clotrimazole]
[3]
  Increase in Ki, K262R compared with CYP2B6dH: similar
[13]
  Cmax: 3700 nM
[14]
  Predicted in vivo % activity (CYP2B6dH): 6%

## CCC(C)n1ncn(-c2ccc(N3CCN(c4ccc(OCC5COC(Cn6cncn6)(c6ccc(Cl)cc6Cl)O5)cc4)CC3)cc2)c1=O (stereo not drawn) [Itraconazole, itraconazole]
[10]
  Kd: 70 ± 130 nM
  Type of difference spectrum induced: type I
  ΔAmax (CYP2B6dH): 0.022 ± 0.003
[3]
  Increase in Ki, K262R compared with CYP2B6dH: > 3 fold
[11]
  Kd: 1730 ± 440 nM
  ΔAmax (K262R): 0.021 ± 0.002
  Higher Ks, K262R compared with CYP2B6dH: > 20 fold and ~20 fold
  ΔAmax, K262R compared with wild-type: similar
[12]; in vivo prediction
  Predicted inhibition of efavirenz metabolism (K262R): 20%
[13]
  Cmax: 1900 nM
[14]
  Predicted inhibition of efavirenz metabolism (CYP2B6dH): 43%

## S=P(N1CC1)(N1CC1)N1CC1 [N,N′,N″-triethylenethiophosphoramide]
[9]
  Susceptibility of K262R to mechanism-based inactivation: preserved

## O=C(c1ccc(OCCN2CCCCC2)cc1)c1c(-c2ccc(O)cc2)sc2cc(O)ccc12 [Raloxifene, raloxifene]
[13]
  Cmax: 3 nM
[14]
  Predicted in vivo % activity (CYP2B6dH): would not alter

## CN[C@H]1CC[C@@H](c2ccc(Cl)c(Cl)c2)c2ccccc21 [Sertraline, sertraline]
[10]
  Kd: 510 ± 160 nM
  Type of difference spectrum induced: type I
  ΔAmax (CYP2B6dH): 0.008 ± 0.0005
[3]
  Increase in Ki, K262R compared with CYP2B6dH: ~ 6 fold and 6 fold
[6]
  Increase in Ki, Q172H/K262R compared with CYP2B6dH: > 6 fold and > 7 fold
  Ki: 2200 nM and 2160 nM
[11]
  Kd: 2060 ± 610 nM
  ΔAmax (K262R): 0.02 ± 0.002
  Higher Ks, K262R compared with CYP2B6dH: 4 fold
  ΔAmax, K262R compared with wild-type: 3 fold
[13]
  Cmax: 620 nM
[14]
  Predicted inhibition of efavirenz metabolism (CYP2B6dH): 52%

## Clc1ccccc1CN1CCc2sccc2C1 [Ticlopidine, ticlopidine]
[10]
  Type of difference spectrum induced: type I
  ΔAmax (CYP2B6dH): 0.023 ± 0.001
[3]
  Increase in Ki, K262R compared with CYP2B6dH: similar
[11]
  ΔAmax (K262R): 0.025 ± 0.001
  Higher Ks, K262R compared with CYP2B6dH: No significant changes
  ΔAmax, K262R compared with wild-type: similar
[12]
  Predicted in vivo activity (K262R): 0.47 (13) min^−1
[13]
  Cmax: 1600 nM

## CC(C)=CCC/C(C)=C/COc1c2ccoc2cc2oc(=O)ccc12 [bergamottin]
[9]
  Susceptibility of K262R to mechanism-based inactivation: preserved

## CC(NC(C)(C)C)C(=O)c1cccc(Cl)c1 (stereo not drawn) [bupropion]
[15]
  Increased clearance: 1.3 fold
[16]
  Increased kcat, K262R compared with CYP2B6dH: > 2 fold

## O=C1Nc2ccc(Cl)cc2[C@@](C#CC2CC2)(C(F)(F)F)O1 [efavirenz]
[9]
  Susceptibility of K262R to mechanism-based inactivation: refractory
[17]
  Reduced area under plasma concentration (AUC): 17%
[18]; efavirenz to 8-hydroxyefavirenz
  Increased catalytic efficiency, K262R compared with CYP2B6dH: ~ 2 fold
[18]; read-out: Km for efavirenz hydroxylation (K262R)
  Km: 15.9 µM
[18]
  kcat for efavirenz hydroxylation (K262R): 7.9 min⁻¹
[19]; read-out: Km for efavirenz hydroxylation (CYP2B6dH)
  Km: 14.3 µM
[19]
  kcat for efavirenz hydroxylation (CYP2B6dH): 4.3 min⁻¹
